Patent publication US20200392107A1, “CYCLIC AMINE DERIVATIVE AND MEDICAL USE THEREOF” (Toray Industries, Inc., priority 2018, published 2020)

Key:
[1] = system: IL-17 production in mouse splenocytes; test: Suppressive effect on IL-17 production by IL-23 stimulation in mouse splenocytes; format: cell-based; details: Splenocyte, 72 h, at 5 μmol/L of the test compound, human IL-23 10 ng/mL, cultured 3 days, read-out: IL-17 production inhibition rate (%)
Procedure: Using mouse splenocytes, the suppressive effect of the cyclic amine derivative (I) or a pharmacologically acceptable salt thereof on IL-17 production by IL-23 stimulation was evaluated by a partially modified method mentioned in The Journal of Biological Chemistry, 2003, Vol. 278, No. 3, p. 1910-1914.
A single cell suspension was prepared from the spleen of C57BL/6J mice (male or female, 6 to 30 weeks old) (Charles River Laboratories Japan, Inc. or CLEA Japan, Inc.) and splenocytes were prepared using Histopaque-1083 (Sigma-Aldrich Japan). The culture medium was used by adding 10% FBS (Gibco), 50 U/mL of penicillin-50 μg/mL of streptomycin (Gibco), 50 μmol/L of 2-mercaptoethanol (Gibco), and 100 U/mL of human IL-2 (Cell Science & Technology Institute, Inc.) to RPMI1640 medium (Gibco). A test compound was dissolved in DMSO and then diluted with the culture medium to have a final concentration of DMSO of 0.1% before use. Splenocytes (3×10^5 cells/well) prepared in the culture medium were seeded in wells of a 96-well flat-bottom plate (Corning Incorporated), the test compound and 10 ng/mL of human IL-23 (R & D systems, Inc.) were added thereto, and the cells were cultured at 37° C. under 5% CO2 for 3 days. A well without addition of human IL-23 and without addition of the test compound and a well with addition of human IL-23 and without addition of the test compound were prepared. After completion of the culture, the culture supernatant was collected and the IL-17 production amount in the supernatant was determined by ELISA method (R & D systems, Inc.).
The IL-17 production inhibition rate (%) was calculated from Formula (2).
IL-17 production inhibition rate (%)=(1−((IL-17 production amount with addition of IL-23 and with addition of the test compound)−(IL-17 production amount without addition of IL-23 and without addition of the test compound))/((IL-17 production amount with addition of IL-23 and without addition of the test compound)−(IL-17 production amount without addition of IL-23 and without addition of the test compound)))×100 (2).

[2] = system: oxazolone-induced mouse atopic dermatitis model; test: Oxazolone-induced mouse atopic dermatitis model; format: in vivo; details: 10 mg/kg orally once daily for 15 days from sensitization day; BALB/c mice; vs vehicle, P<0.05
Procedure: Using increase in the ear thickness as an index of exacerbation of symptoms, the effect of the cyclic amine derivative (I) or a pharmacologically acceptable salt thereof in an oxazolone-induced mouse atopic dermatitis model was evaluated. The oxazolone-induced mouse atopic dermatitis model was prepared by a partially modified method by Nakajima et al. (Journal of Investigative Dermatology, 2014, Vol. 134, p. 2122-2130).
BALB/c mice (female, 7 weeks old) (Charles River Laboratories Japan, Inc.) were used at 8 weeks old after preliminary breeding. To the back of the mice, 25 μL of a 3 w/v % oxazolone solution dissolved in ethanol was applied to sensitize the mice. Every other day from 5 days to 13 days after the sensitization, 10 μL each of a 0.6 w/v % oxazolone solution dissolved in ethanol was applied to both sides of the right auricle of the sensitized mice to induce inflammation.
A test compound at a dose of 10 mg/kg was administered to the mice once daily for 15 days from the sensitization day to 14 days after sensitization. As the test compound, the compound of Example 1, the compound of Example 4, and the compound of Example 9 were used. The compound of Example 1, the compound of Example 4, and the compound of Example 9 were suspended in a 0.5 w/v % methylcellulose solution and orally administered. The group in which the compound of Example 1 was administered to mice was defined as the Example-1 compound administration group, the group in which the compound of Example 4 was administered was defined as the Example-4 compound administration group, and the group in which the compound of Example 9 was administered was defined as the Example-9 compound administration group. In the vehicle administration group, a vehicle of each test compound (0.5 w/v % methylcellulose solution) was similarly administered.
The right ear thickness before application of the oxazolone solution (before sensitization) on the sensitization day and the right ear thickness on the next day of final induction were measured with a digital micrometer (Mitutoyo Corporation). […]

`CC(=O)N1CCCC[C@@H]1C(=O)Nc1cc(Cl)c2c(c1)CCCN2Cc1ccc(C(F)(F)F)cc1` [Example 1, (R)-1-acetyl-N-(8-chloro-1-(4-(trifluoromethyl)benzyl)-1,2,3,4-tetrahydroquinolin-6-yl)piperidine-2-carboxamide] was tested, and the inhibition at 5 µM [1] was 98% and the “increase in the ear thickness (change in the ear thickness, next day of final induction)” value [2] was “statistically significantly suppressed”.

For `CC(=O)N1CCCC[C@@H]1C(=O)Nc1cc(Cl)c2c(c1)CCN2Cc1ccc(C(F)(F)F)cc1` [Example 4, (R)-1-acetyl-N-(7-chloro-1-(4-(trifluoromethyl)benzyl)indolin-5-yl)piperidine-2-carboxamide], the inhibition at 5 µM [1] was 99.9% and the “increase in the ear thickness (change in the ear thickness, next day of final induction)” value [2] was “statistically significantly suppressed”.

In the case of `CC(=O)N1CCCC[C@@H]1C(=O)Nc1cc(Cl)c2c(c1)CCN2C[C@H]1CC[C@H](C(F)(F)F)CC1` [Example 9, (R)-1-acetyl-N-(7-chloro-1-((trans-4-(trifluoromethyl)cyclo-hexyl)methyl)indolin-5-yl)piperidine-2-carboxamide], the inhibition at 5 µM [1] is reported as 99.5% and the “increase in the ear thickness (change in the ear thickness, next day of final induction)” value [2] is reported as “statistically significantly suppressed”.
